Laboratory results taken from publication PMC4916434, “Evaluation of the inhibition potential of plumbagin against cytochrome P450 using LC-MS/MS and cocktail approach” (Scientific Reports, 2016).

Tests used:
Assay type in all cases: in vitro ADME
CYP1A2 = target: T1, CYP1A2 (Homo sapiens, UniProt P05177); assay: biochemical
T1 construct: consisting of pooled HLMs (0.5 mg/ml) or RLMs (1 mg/ml) and an NADPH-regenerating system; tissue Corning Gentest Corporation; host or cells: pooled human liver microsomes (n = 20)
T1 sequence (P05177 1-516): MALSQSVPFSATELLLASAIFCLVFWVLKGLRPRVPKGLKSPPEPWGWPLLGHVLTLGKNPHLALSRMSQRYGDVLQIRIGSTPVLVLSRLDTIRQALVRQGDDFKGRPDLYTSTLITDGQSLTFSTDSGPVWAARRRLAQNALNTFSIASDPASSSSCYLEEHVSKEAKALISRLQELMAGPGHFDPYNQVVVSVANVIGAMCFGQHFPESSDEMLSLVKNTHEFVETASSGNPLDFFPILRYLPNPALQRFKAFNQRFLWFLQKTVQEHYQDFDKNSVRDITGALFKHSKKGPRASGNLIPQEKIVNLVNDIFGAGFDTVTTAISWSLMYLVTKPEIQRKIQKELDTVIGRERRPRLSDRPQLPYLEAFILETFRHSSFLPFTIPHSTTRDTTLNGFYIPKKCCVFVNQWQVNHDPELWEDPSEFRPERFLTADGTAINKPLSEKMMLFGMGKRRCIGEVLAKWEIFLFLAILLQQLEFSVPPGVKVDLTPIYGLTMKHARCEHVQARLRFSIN
Experimental: (§1) Microsomal incubation was carried out at 37 °C in a mixture of 200 μl in 0.05 M Tris/HCl buffer (pH 7.4) consisting of pooled HLMs (0.5 mg/ml) or RLMs (1 mg/ml) and an NADPH-regenerating system including MgCl2 (5 mM), G6P (10 mM), G6PDH (0.4 U/ml) and NADP (1 mM). Substrates were added into the incubation mixture and obtained the final concentrations (10 μM phenacetin for CYP1A2, 20 μM bupropion for CYP2B1/6, 20 μM tolbutamide for CYP2C9/11, 5 μM dextromethorphan for CYP2D1/6, 20 μM chlorzoxazone for CYP2E1 and 10 μM midazolam for CYP3A2/4), which were close to Km respectively. The proportion of organic solvent was not higher than 1% (v/v) in the incubation mixture. After pre-incubation for 5 min, the reaction was initiated by addition of NADP. Incubations were performed for 20 min, stopped by adding 200 μl ice-cold acetonitrile. And then 20 μl internal standard solution was added (3-acetamidophenol 2 μg/ml, chlorpropamide 2 μg/ml and mebendazole 2 μg/ml). The solution was mixed thoroughly for 3 min and centrifuged for 10 min at 16,000 × g at 4 °C. The supernatant (60 μl) was transferred to autosampler vials, and 2 μl was injected into LC-MS/MS system.
(§2) The IC50 (concentration of inhibitor to cause 50% inhibition of original enzyme activity) values were determined with the same incubation condition above. The specific concentrations of plumbagin were ranged from 0.1 μM to 50 μM. The IC50 values were calculated by plotting relative activities over the logarithm of plumbagin concentrations using GraphPad Prism 5.0 (GraphPad software Inc., CA, USA).
(§3) Cocktail probe substrates were then added and incubated for 20 min. Reactions were stopped with 200 μl ice-cold acetonitrile. The samples were treated according to the microsomal incubation method and then injected into LC-MS/MS for analysis.
(§4) Kinetic studies were performed for determining the types of inhibition on CYP by plumbagin. Pooled HLMs (0.5 mg/ml) or RLMs (1 mg/ml) with plumbagin (1 μM, 2 μM, 5 μM and 10 μM) were incubated in 0.05 M Tris/HCl buffer (pH 7.4) for 20 min at 37 °C. A series of concentrations for cocktail probe substrates were used: 2.5–20 μM phenacetin for CYP1A2; 5–40 μM bupropion for CYP2B1/6; 5–40 μM tolbutamide for CYP2C9/11; 1.25–10 μM dextromethorphan for CYP2D1/6; 5–40 μM chlorzoxazone for CYP2E1; 2.5–80 μM midazolam for CYP3A2; and 0.625–5 μM midazolam for CYP3A4. Enzyme kinetics as well as statistical analysis were performed using GraphPad Prism 5.0.
(§5) All data were presented as mean ± SD. The IC50 values were fitted by non-linear regression analysis using GraphPad Prism 5.0. The kinetic parameters were obtained by fitting velocity data to kinetic models (Michaelis-Menten) using GraphPad Prism 5.0. The Lineweaver-Burk Plot (the reciprocal of reaction velocities versus the reciprocal of substrates concentrations) was used to determine the quality of fit to a specific inhibition model. The inhibition constant (Ki) was obtained by a secondary plot using the slopes of the primary Lineweaver-Burk Plot (Km/Vmax versus inhibitor concentrations). αKi was obtained from a secondary plot using the y-intercepts of the Lineweaver-Burk plot (1/Vmax versus inhibitor concentrations). All results were analyzed in quadruplicate. One-way analysis of variance was used to estimate the significance of differences. There was statistical significance between control and test groups if p < 0.05.

CYP2B6 = target: T2, CYP2B6 (Homo sapiens, UniProt P20813); assay: biochemical
T2 construct: consisting of pooled HLMs (0.5 mg/ml) or RLMs (1 mg/ml) and an NADPH-regenerating system; tissue Corning Gentest Corporation; host or cells: pooled human liver microsomes (n = 20)
T2 sequence (P20813 1-491): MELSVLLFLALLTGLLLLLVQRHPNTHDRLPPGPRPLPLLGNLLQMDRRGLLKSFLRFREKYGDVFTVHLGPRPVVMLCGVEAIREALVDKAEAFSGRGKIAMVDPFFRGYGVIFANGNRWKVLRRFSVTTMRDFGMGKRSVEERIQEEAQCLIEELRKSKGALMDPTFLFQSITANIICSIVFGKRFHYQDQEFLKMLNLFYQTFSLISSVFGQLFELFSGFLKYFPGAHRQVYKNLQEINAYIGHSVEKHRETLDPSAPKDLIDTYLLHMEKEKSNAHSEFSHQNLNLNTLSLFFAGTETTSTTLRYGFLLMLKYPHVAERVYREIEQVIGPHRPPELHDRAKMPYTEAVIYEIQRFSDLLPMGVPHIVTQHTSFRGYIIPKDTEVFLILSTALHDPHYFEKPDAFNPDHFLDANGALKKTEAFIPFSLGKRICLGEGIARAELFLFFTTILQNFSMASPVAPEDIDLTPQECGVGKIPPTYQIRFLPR
Experimental: as §1, §2, §3, §4, §5

CYP3A4 = target: T3, CYP3A4 (Homo sapiens, UniProt P08684); assay: biochemical
T3 construct: consisting of pooled HLMs (0.5 mg/ml) or RLMs (1 mg/ml) and an NADPH-regenerating system; tissue Corning Gentest Corporation; host or cells: pooled human liver microsomes (n = 20)
T3 sequence (P08684 whole entry): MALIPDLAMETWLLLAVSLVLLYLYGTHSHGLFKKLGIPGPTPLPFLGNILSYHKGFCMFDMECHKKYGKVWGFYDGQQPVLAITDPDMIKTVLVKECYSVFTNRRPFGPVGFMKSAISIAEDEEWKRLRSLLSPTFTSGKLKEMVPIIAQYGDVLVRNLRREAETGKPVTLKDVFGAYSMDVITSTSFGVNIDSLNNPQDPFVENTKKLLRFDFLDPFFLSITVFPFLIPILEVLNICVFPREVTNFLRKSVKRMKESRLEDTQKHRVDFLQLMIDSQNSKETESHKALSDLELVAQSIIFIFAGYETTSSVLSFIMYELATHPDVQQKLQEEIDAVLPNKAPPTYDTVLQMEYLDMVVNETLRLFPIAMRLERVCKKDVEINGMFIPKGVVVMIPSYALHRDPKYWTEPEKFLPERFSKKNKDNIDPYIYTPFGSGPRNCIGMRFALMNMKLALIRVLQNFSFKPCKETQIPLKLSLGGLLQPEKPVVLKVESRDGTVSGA
Experimental: as §1, §2, §3, §4, §5

CYP2E1 = target: T4, CYP2E1 (Homo sapiens, UniProt P05181); assay: CYP2E1 inhibition (chlorzoxazone 6-hydroxylation) in pooled human liver microsomes, cocktail LC-MS/MS
T4 construct: consisting of pooled HLMs (0.5 mg/ml) or RLMs (1 mg/ml) and an NADPH-regenerating system; tissue Corning Gentest Corporation; host or cells: pooled human liver microsomes (n = 20)
T4 sequence (P05181 whole entry): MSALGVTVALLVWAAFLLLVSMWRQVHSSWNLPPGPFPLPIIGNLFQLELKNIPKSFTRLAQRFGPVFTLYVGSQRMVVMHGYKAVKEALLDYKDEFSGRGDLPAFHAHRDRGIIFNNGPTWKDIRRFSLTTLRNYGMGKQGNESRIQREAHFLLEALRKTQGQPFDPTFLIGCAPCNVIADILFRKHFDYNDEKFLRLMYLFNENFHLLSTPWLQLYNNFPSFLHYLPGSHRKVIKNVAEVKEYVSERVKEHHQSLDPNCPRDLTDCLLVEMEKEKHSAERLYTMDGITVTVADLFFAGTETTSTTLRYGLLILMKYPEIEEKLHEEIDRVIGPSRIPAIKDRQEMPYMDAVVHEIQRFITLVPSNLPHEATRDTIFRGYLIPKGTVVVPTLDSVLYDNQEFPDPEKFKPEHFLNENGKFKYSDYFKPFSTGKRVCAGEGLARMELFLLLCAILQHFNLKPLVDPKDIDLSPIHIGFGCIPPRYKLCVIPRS
Experimental: as §1, §2, §3, §4, §5

`CC1=CC(=O)c2c(O)cccc2C1=O` [plumbagin, 5-hydroxy-2-methyl-1,4-naphthoquinone] was tested, and the IC50 (CYP1A2) was 7.49 µM, the Ki (CYP1A2) was 0.15 µM and the Type of inhibition (CYP1A2) was “non-competitive”. It also gave a α (CYP1A2; human, 20 min, pH 7.4) of 0.94, a αKi (CYP1A2; human, 20 min, pH 7.4) of 0.16 µM and an IC50 (CYP2B6) of 13.1 µM. The Ki (CYP2B6) was 1.62 µM, the Type of inhibition (CYP2B6) was “mixed-type” and the α (CYP2B6; human, 20 min, pH 7.4) was 0.55. The αKi (CYP2B6; human, 20 min, pH 7.4) was 2.92 µM, the IC50 (CYP3A4) was 6.45 µM and the Ki (CYP3A4) was 0.88 µM. For the same compound, the Type of inhibition (CYP3A4) was “mixed-type”, the α (CYP3A4; human, 20 min, pH 7.4) was 1.54 and the αKi (CYP3A4; human, 20 min, pH 7.4) was 0.57 µM. For the same compound, the IC50 (CYP2E1) was 6.54 µM, the Ki (CYP2E1) was 0.65 µM and the Type of inhibition (CYP2E1) was “mixed-type”. The αKi (CYP2E1; HLMs, secondary plot of y-intercepts, chlorzoxazone 5-40 μM) was 2.64 µM and the α (CYP2E1; human, 20 min, pH 7.4) was 0.25.
